Patent publication US5175283A, “Azetidin-2-one derivatives as serine protease inhibitors” (Bristol-Myers Squibb Company, priority 1992, dated 1992)
“And” between values parts separate entries of the source, which are not always exact repeats. Equal values may be shown once. Where a name gives a salt, the structure may show the parent alone.

What was measured:
[1] = target: T1, human α-thrombin (Homo sapiens, UniProt P00734); assay: Enzyme assay for the inhibition of thrombin (s-2238 substrate); format: biochemical; set-up: key to Thrombin k2 /ki (second order rate constant), cells with symbol *: *: not measurable; conditions: for IC50: 3 min incubation of drug with enzyme, room temperature; for Thrombin k2 /ki (second order rate constant for inactivation of the enzyme) / Thrombin k2 /ki (second order rate constant), cells with symbol *: human α-thrombin; for Thrombin k2 /ki (second order rate constant for inactivation of the enzyme): s-2238, pH 7.4, room temperature; for Thrombin k2 /ki (second order rate constant), cells with symbol *: * = not measurable
T1 construct: purified human α-thrombin dissolved in thrombin assay buffer
Description: 1. Enzyme Assays for the Inhibition of Thrombin The following reagents were used in these assays: Thrombin assay buffer: 145 mM NaCl, 5 mM KCl, 30 mM N-2-hydroxyethyl piperazine-N'-2-ethanesulfonic acid, pH 7.4, 1 mg/ml polyethylene glycol (PEG-8000). 3 mM D-Phe-Pip-Arg-p-nitroanilide (s-2238) in H2 O. 3 U/ml purified human α-thrombin dissolved in thrombin assay buffer. Inhibitors to be tested were dissolved in H2 O, methanol, or DMSO just prior to use. Assay Procedure To each well in a 96-well microtiter plate, 270 μl of assay buffer was added. Human α-thrombin (10 μl of 3 U/ml) was added, then 10 μl of inhibitor were added and mixed. The samples were incubated at room temperature for a defined period of time (3 min for initial IC50 determinations). The enzymic reaction was started with 10 μl of 3 mM s-2238 substrate and continued at room temperature. The change in optical density was measured at 405 nm. A kinetic microplate reader (Molecular Devices Corporation Vmax) was used to measure the change in optical density over time. Results are reported in Table 1 as IC50 values, i.e., the drug concentration in mole/liter which caused 50% inhibition of the enzyme activity (after incubation of the drug with the enzyme for 3 min). Alternatively, results are also reported in Table 1 expressed as k2 /ki which is the second order rate constant in per mole per minute for inactivation time of the enzyme [Kitz, et al., J. Biol. Chem., 237, 3245 (1962)].

[2] = target: T1, human α-thrombin; assay: Concentration required for doubling thrombin clotting time in human plasma; format: biochemical; conditions: human citrated plasma, 10 U/ml human thrombin; read-out: ED50, drug concentration required to double clotting time
Description: Procedure for Determining the Concentration Required for Doubling Thrombin Clotting Time--Clotting Time Assays The following reagents were used in these assays: Owren's Veronal Buffer: 125 mM NaCl, 28.4 mM sodium barbital, pH 7.35. Human citrated plasma obtained from human volunteers or citrated plasma obtained from IP-dosed animals (prepared as described below). 10 NIH Units/ml human α-thrombin in thrombin buffer for use with human plasma. […] The blood was centrifuged at […] (480×g) for 15 min at room temperature (using a Sorvall RT 6000B centrifuge). The plasma was removed, pooled, and aliquoted into small tubes which were stored frozen for later use. Clotting Time Measurement Clotting times were determined by pipetting 0.1 ml of Owren's buffer (pre-warmed 37° C.) and 0.1 ml of human or rat plasma into yellow sample cuvettes. For studies with human plasma 10 U/ml human thrombin (10 ml) was placed in the reservoir assembly station of the MLA 700. (Medical Laboratory Automation, Electra 700 Reservoir Assembly). For rat studies, the human thrombin concentration was 25 U/ml. The cuvettes were vortexed and then placed on the MLA 700 sample wheel. The coagulation timer (MLA 700) automatically dispenses 0.1 ml human thrombin into the sample in each cuvette. Detection of the fibrin clot was determined optically by the MLA 700. Studies were performed to determine the concentration of drug which caused a doubling of the clotting time in human plasma. From standard curves of thrombin activity added to the sample versus the clotting time, the concentration of drug which caused a doubling of the thrombin clotting time corresponded to inhibition of approximately 1/2 of the added thrombin clotting activity. Results are reported in Table 1 as ED50 values, i.e., the drug concentration required to double clotting time.

[3] = target: T2, bovine pancreatic trypsin (Bos taurus, UniProt P00760); assay: Enzyme assay for the inhibition of trypsin (Z-Val-Gly-Arg-pNA substrate); format: biochemical; conditions: 3 min incubation of drug with enzyme, room temperature, pH 8.0; read-out: Trypsin IC50
T2 construct: purified bovine pancreatic trypsin dissolved in trypsin assay buffer
T2 sequence (P00760 24-246): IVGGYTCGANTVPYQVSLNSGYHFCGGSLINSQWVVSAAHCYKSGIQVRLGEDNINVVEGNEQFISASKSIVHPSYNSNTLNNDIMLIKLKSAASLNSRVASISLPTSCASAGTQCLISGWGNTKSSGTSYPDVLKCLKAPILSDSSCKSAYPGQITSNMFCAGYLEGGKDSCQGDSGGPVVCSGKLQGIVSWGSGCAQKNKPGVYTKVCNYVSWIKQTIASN
Description: 2. Enzyme Assays for the Inhibition of Trypsin
(§1) The following reagents were used in these assays:
Trypsin assay buffer: 2 mM CaCl2, 50 mM Tris/Cl pH 8.0.
3 mM Z-Val-Gly-Arg-pNA (Chromzyme TRy) dissolved in H2 O.
6 μg/ml of purified bovine pancreatic trypsin dissolved in trypsin assay buffer.
Inhibitors to be tested were dissolved in H2 O, methanol or DMSO just prior to use.
To each well in a 96-well microtiter plate, 270 μl of assay buffer was added. Bovine trypsin (10 μl of 6 μg/ml) was added. Inhibitor (10 μl ) was added, mixed, and then incubated at room temperature for 3 min. The enzymic reaction was started with 10 μl of 3 mM Z-Val-Gly-Arg-pNA substrate. The change in optical density was measured at 405 nm at room temperature. A kinetic microplate reader (Molecular Devices Corporation Vmax) was used to measure the change in optical density over time.
Results are reported in Table 1 as IC50 values, i.e., the drug concentration in mole/liter which caused 50% inhibition of the enzyme activity (after incubation of the drug with the enzyme for 3 min).

[4] = tested on: Thrombin Induced Clotting Time; assay: Thrombin induced clotting time ex vivo in plasma of i.p. dosed rats; conditions: rat, 50 mg/kg i.p.
Description: Procedure for Determining the Concentration Required for Doubling Thrombin Clotting Time--Clotting Time Assays
as §1
Owren's Veronal Buffer: 125 mM NaCl, 28.4 mM sodium barbital, pH 7.35.
Human citrated plasma obtained from human volunteers or citrated plasma obtained from IP-dosed animals (prepared as described below).
25 NIH Units/ml human α-thrombin in thrombin buffer for use with rat plasma.
Test compound was prepared just prior to dosing. Routinely the drugs are dissolved in water. Animals were dosed by i.p. injection.
After the appropriate time period, the animals were ether-anesthetized, and blood was drawn by cardiac puncture using 333 μl of 3.8% sodium citrate per 3 ml blood. After all of the samples were obtained, the tubes were centrifuged at 1,500 rpm for 15 min as described for the human blood samples.
Clotting Time Measurement
Clotting times were determined by pipetting 0.1 ml of Owren's buffer (pre-warmed 37° C.) and 0.1 ml of human or rat plasma into yellow sample cuvettes. For studies with human plasma 10 U/ml human thrombin (10 ml) was placed in the reservoir assembly station of the MLA 700. (Medical Laboratory Automation, Electra 700 Reservoir Assembly). For rat studies, the human thrombin concentration was 25 U/ml. The cuvettes were vortexed and then placed on the MLA 700 sample wheel. The coagulation timer (MLA 700) automatically dispenses 0.1 ml human thrombin into the sample in each cuvette. Detection of the fibrin clot was determined optically by the MLA 700.
In separate studies, two compounds, Compound XIX and Compound XI, were dosed 50 mg/kg I.P. to three rats in each study group. […] "Term" indicates "terminated sample" where a clot was unable to form after approximately 99 seconds. When this occurred, the animal plasma was diluted 1: 1 with control rat plasma and the sample tested again. If need, the animal plasma was diluted 1:4 and tested again.

[5] = 0.5 hr. post dose, undiluted plasma, per animal

Structure (SMILES) | IC50 [1] | IC (2-fold clotting time) [2] | Thrombin k2 /ki (second order rate constant for inactivation of the enzyme) [1] | further results
CN(C)c1cccc2c(S(=O)(=O)N3C(=O)[C@@H](CCCNC(=N)N)[C@@H]3C(=O)N3CCCCC3)cccc12 (relative stereo) [XII, trans-4-(1-Piperidinocarbonyl)-3-guanidinooropyl-1-[(5-dimethylamino)-1-naphthalenesulfonyl]-2-azetidinone hydrochloride salt] | 10 nM | 30 µM | 2.8 × 10^6 m^-1 min^-1 | IC50 [3]: 14 nM
CC(=O)N1C(=O)[C@H](CCCNC(=N)N)[C@@H]1C(=O)N1CCCCC1 (relative stereo) [XXIII, cis-4-(1-Piperidinocarbonyl)-3-guanidinopropyl-1-acetyl-2-azetidinone hydrochloride salt] | – | 20 µM | 4.3 × 10^4 m^-1 min^-1 | –
CN(C)c1cccc2c(S(=O)(=O)N3CC(CCCNC(=N)N)C3=O)cccc12 (stereo not drawn) [IX, 3-Guanidinopropyl-1-[(5-dimethylamino)-1-naphthanesulfonyl)]-2-azetidinone hydrochloride salt] | 1000 nM | 30 µM | – | Thrombin k2 /ki (second order rate constant), cells with symbol * [1]: *
CCS(=O)(=O)[C@H]1[C@H](CCCNC(=N)N)C(=O)N1C(C)=O (relative stereo) [Compound X, trans-4-Ethylsulfonyl-3-quanidinopropyl-1-acetyl-2-azetidinone hydrochloride salt] | – | – | 3.0 × 10^6 m^-1 min^-1 | –
CC(=O)OC1C(CCCNC(=N)N)C(=O)N1C(=O)C(C)(C)C (stereo not drawn) [XXI, 4-Acetyloxy-3-guanidinopropyl-1-t-butylcarbonyl-2-azetidinone hydrochloride salt] | 74 nM | – | – | –

Second part, led by results:

IC50 [1] | IC (2-fold clotting time) [2] | Thrombin k2 /ki (second order rate constant for inactivation of the enzyme) [1] | Structure (SMILES) | further results
100 nM | – | – | CC(=O)N1CC(CCCNC(=N)N)C1=O (stereo not drawn) [VIII, 3-Guanidinopropyl-1-acetyl-2-azetidinone hydrochloride salt] | –
2 to 9 nM | 65 µM | 1.2 × 10^8 m^-1 min^-1 | COC(=O)[C@H]1[C@H](CCCNC(=N)N)C(=O)N1S(=O)(=O)c1ccc(C)cc1.Cl (relative stereo) [I, trans-4-Methoxycarbonyl-3-(3-guanidinopropyl)-1-p-toluenesulfonyl-2-azetidinone hydrochloride salt] | IC50 [3]: 8 nM
12 nM | 0.43 µM | 2.0 × 10^7 m^-1 min^-1 | CC(=O)N1C(=O)[C@@H](CCCNC(=N)N)[C@@H]1C(=O)NCC(=O)O (relative stereo) [Compound XIX, 4-[[(2-Hydroxy-2-oxoethyl)amino]carbonyl]-3-(3-guanidinopropyl)-1-acetyl-2-azetidinone hydrochloride salt] | Thrombin Induced Clotting Time (1:1 Control Plasma) ([4]; 0.5 hr. post dose, plasma diluted 1:1 with control rat plasma, hydrochloride salt, 50 mg/kg, in s): 14.4 and 17.3; Thrombin Induced Clotting Time [4, 5]: 45.2 s; Thrombin Induced Clotting Time, terminated samples [4, 5]: term. ("terminated sample" where a clot was unable to form after approximately 99 seconds); Thrombin Induced Clotting Time ([4]; 2 hr. post dose, undiluted plasma, per animal, hydrochloride salt, 50 mg/kg): 12.9 s and 13.3 s and 14.4 s; Thrombin Induced Clotting Time ([4]; 5 hr. post dose, undiluted plasma, per animal, hydrochloride salt, 50 mg/kg): 13.5 s and 13.6 s and 13.3 s; Clotting time ex vivo, result in words ([4]; three rats per group): prolonged clotting time
35 nM | 10.0 µM | – | CC(=O)OC1C(CCCNC(=N)N)C(=O)N1C(=O)c1ccccc1 (stereo not drawn) [XXII, 4-Acetyloxy-3-guanidinooropyl-1-phenylcarbonyl-2-azetidinone hydrochloride salt] | Thrombin k2 /ki (second order rate constant), cells with symbol * [1]: *
– | 50 µM | 3.7 × 10^5 m^-1 min^-1 | COC(=O)[C@H]1[C@H](CCCCNC(=N)N)C(=O)N1S(=O)(=O)c1cccc2c(N(C)C)cccc12 (relative stereo) [XVII, trans-4-Methoxycarbonyl-3-(4-guanidinobutyl)-1-[(5-dimethylamino)-1-naphthalenesulfonyl]-2-azetidinone hydrochloride salt] | –
49 nM | 1.25 µM | 4.3 × 10^6 m^-1 min^-1 | CC(=O)N1C(=O)C(CCCNC(=N)N)C1C(=O)N1CCC[C@H]1C(=O)O (stereo partly drawn) [XVIII, trans-4-[(2-Carboxy-1-pyrrolidinyl)carbonyl]-3-(3-guanidino)-procyl-1-acetyl-2-azetidinone hydrochloride salt] | –
20 nM | – | 1.5 × 10^6 m^-1 min^-1 | COC(=O)[C@H]1[C@H](CCCNC(=N)N)C(=O)N1S(C)(=O)=O.Cl (relative stereo) [IV, trans-4-Methoxycarbonyl-3-(guanidinopropyl)-1-methylsulfonyl-2-azetidinone hydrochloride salt] | IC50 [3]: 70 nM
